“Also recorded” adds a separate entry of the source.
Assays:
hippocampal neurons = test: Mitochondrial stress in hippocampal neurons treated with peptide Aβ 1-42; format: cell-based; details: 1 nM, FIG. 7
Method: The mitochondrial effects of compound DX243 were tested in a model of hippocampal neurons treated with peptide Aβ 1-42, this peptide inducing mitochondrial stress (represented by a reduction in mitochondrial surface area).

C2C12 = test: Test of mitochondrial dynamics (Mitotracker labeling) on C2C12 cell line; format: cell-based; details: 24 h, different concentrations, FIG. 3
Method: (§1) A human neuroblastoma cell line (SHSY5y) and also a myoblast cell line (C2C12) were cultured in DMEM™ medium (Ref. 21068028 ThermoFisher Scientific). Once in culture, these two cell lines were treated for 24 h with different concentrations of the compound DX243. A series of images was taken, labeling with Mitotracker™ (Ref. M7512, ThermoFisher Scientific), which highlights and visualizes the mitochondria present in these cells, and enables quantification of their amount.

Neuro-2a cells [1] = test: Test of relative metabolic activity (MTT) on Neuro-2a cells under normal conditions; format: cell-based, mouse; details: physiological conditions; 24 h; two concentrations; FIG. 2A
Method: (§2) A test based on the metabolic activity of the neurons was performed to evaluate the effect of the compounds of formula (I) on this metabolic activity. This test is based on the use of the tetrazolium salt MTT (3-(4,5-dimethylthiazol-2-yl)-2,5-diphenyltetrazolium bromide). Tetrazolium is reduced by mitochondrial succinate dehydrogenase in active live cells to formazan, a purple-colored precipitate. The amount of precipitate formed is proportional to the metabolic activity present in the culture. Thus, spectroscopic assay of the optical density at 550 nm makes it possible to determine the relative amount of metabolic activity and consequently the mitochondrial activity. This test on cortical neuron cultures was performed with different compounds in reference to Table 2 (DX101, DX243, DX244, DX245, DX249, DX301, DX302 and DX401) used at the same concentration (100 nM).
The same test described in Example 1 was performed on Neuro-2a cells—a mouse neuroblastoma cell line. Under physiological conditions, once cultured and at about 50% confluence, Neuro-2a cells were placed in contact for 24 h with two concentrations of the compounds DX243 and DX245.

Neuro-2a cells [2] = test: MitoTracker study of mitochondria in Neuro-2a cells after ethanol intoxication; format: cell-based, mouse; details: after 24 h of ethanol intoxication (500 mm); FIG. 2C
dopaminergic neurons [3] = test: Mitochondrial dynamics (mitochondrial mass) in dopaminergic neurons treated with MPP+; format: cell-based, rat; details: MPP+ 48 h; different concentrations during MPP+ and 48 h after removal; FIG. 5
Method: (§3) The mitochondrial effects of compound DX243 were tested in a model of dopaminergic neurons treated with MPP+ (1-methyl-4-phenylpyridinium), a mitochondrial toxin that increases mitochondrial stress and reduces the number of mitochondria. MPP+ is known for its deleterious effects on mitochondria (increased mitochondrial stress measured by the amount of cytochrome C, reduced mitochondrial number measured by means of the Mitotracker test). Dopaminergic neurons were obtained from microdissection of the midbrain of rat embryos cultured with Neurobasal™ Medium (Ref. 21103049 ThermoFisher Scientific) supplemented with B27 supplement 50× (Ref. 17504044 ThermoFisher Scientific), penicillin/streptomycin, L-glutamine and also BDNF (brain-derived neurotrophic factor) and GDNF (glial cell-derived neurotrophic factor).
(§4) These neurons were cultured for 5 days and then treated for 48 h with MPP+. These neurons were also exposed to different concentrations of the compound DX243 during the 48 h of MPP+ treatment, and also 48 h after MPP+ removal.

[4] = tested on: mitochondrial fission gene drp1; test: Inhibition of mitochondrial fission on cochlear explants (qRT-PCR); format: cell-based, mice; details: 100 nM; 24 h; relative to untreated cochleae; FIG. 4
Method: A cochlear explant model was developed. To obtain cochleae, the organ of hearing, in culture, cochleae from 3-day-old mice were microdissected. These cochleae were then placed in DMEM medium with addition of glucose (0.5%), N1 (0.5%), insulin (0.25%) and penicillin (0.1%), for 24 h. 100 nM of the compound DX243 were then added to this culture medium for 24 h. The cochleae were then recovered and the RNA extracted therefrom, so as to be able to analyze the modulation of several genes following treatment with the compound DX243.

SHSY5y = test: Test of mitochondrial dynamics (Mitotracker labeling) on SHSY5Y cell line; format: cell-based, human; details: 24 h, different concentrations, FIG. 3
Method: as §1

Neuro-2a cells [5] = test: Test of metabolic activity (MTT) on Neuro-2a cells after ethanol (EtOH) intoxication; format: cell-based, mouse; details: for metabolic activity after EtOH intoxication relative to untreated cells (MTT): 24 h treatment with 100 nM, EtOH 200 mM and 500 mM, FIG. 2B
Method: as §2
The same test described in Example 1 was performed on Neuro-2a cells—a mouse neuroblastoma cell line. It was shown that 24 h of intoxication with ethanol (EtOH) at high concentration (500 mM) in this cell line reduced the metabolic activity of these cells (χ=P value <0.0001 relative to the control).

dopaminergic neurons [6] = test: Mitochondrial stress in dopaminergic neurons treated with MPP+; format: cell-based, rat; details: 10 nM; FIG. 6
Method: as §3, §4

| SMILES | mitochondrial surface area (hippocampal neurons) | mitochondrial amount (mass), Mitotracker labeling (C2C12) | metabolic activity of Neuro-2a cells (MTT) (Neuro-2a cells [1]) | mitochondrial surface area (MitoTracker) (Neuro-2a cells [2]) | mitochondrial mass (dopaminergic neurons [3]) | expression of drp1 mRNA (qRT-PCR) [4] | mitochondrial amount (mass), Mitotracker labeling (SHSY5y) | metabolic activity after EtOH intoxication (MTT) (Neuro-2a cells [5]; 24 h EtOH 500 mM, 24 h treatment with 1 nM) | metabolic activity after EtOH intoxication relative to untreated cells (MTT) (Neuro-2a cells [5]) | mitochondrial stress engendered by MPP+ treatment (dopaminergic neurons [6]) |
| --- | --- | --- | --- | --- | --- | --- | --- | --- | --- | --- |
| CC(C)CCC[C@@H](C)[C@H]1CC[C@H]2[C@@H]3C[C@@H](NCCCNCCCCN)[C@@]4(O)C[C@@H](O)CC[C@]4(C)[C@H]3CC[C@]12C [DX243, 5α-hydroxy-6β-[3-(4-aminobutylamino)propylamino]cholestan-3β-ol] | restoring this decrease in mitochondrial surface area | increase in mitochondrial amount (mass) | increase in the metabolic activity | increase in mitochondrial surface area | increasing and restoring mitochondrial mass | reduction in drp1 mRNA; also recorded: inhibition of expression | increase in mitochondrial amount (mass) | partially recovered | significantly greater metabolic activity | reduction in mitochondrial stress |
| CC(C)CCCC(C)[C@H]1CCC2C3C[C@@H](NCCCCNCCCN)[C@@]4(O)C[C@@H](O)CC[C@]4(C)C3CC[C@@]21C (stereo partly drawn) [DX245] | – | – | increase in the metabolic activity | – | – | – | – | – | significantly greater metabolic activity | – |

From US20260183311A1, “COMPOUNDS DERIVED FROM STEROLS FOR THE TREATMENT OF A DISEASE ASSOCIATED WITH A MITOCHONDRIAL DEFICIT” (DENDROGENIX, priority 2022, published 2026)
